Test results reported in US20230027066A1 (Urovant Sciences GmbH, priority 2019, published 2023).
Like-named read-outs stand apart in the source and are kept apart here.

Tests used:
[1] = tested on: men and women with overactive bladder; assay: extension study, OAB-q LF coping subscore at Week 52; type: in vivo, human; conditions: for OAB-q LF Coping Subscore, Week 52 Mean: Full Analysis Set Extension; for OAB-q LF Coping Subscore, Change from Baseline Mean at Week 52: baseline from parent study
[2] = Source text: A placebo group was included in the main study, and a group that received tolterodine monotherapy was included in the main study and in the extension.
[3] = 40-week extension study (52 weeks), adverse events
Source text: Approximately 500 men and women with overactive bladder who completed 12 weeks in the parent study were permitted to enroll, at approximately 110 study sites in the U.S.
Secondary endpoints were evaluation of CFB at Week 52 in average number of micturitions, Urge Urinary Incontinence (UUI) episodes, urgency episodes, and total urinary incontinence episodes. All CFB calculations used the parent study Baseline value.

[4] = tested on: men and women with overactive bladder; assay: 40-week extension study (52 weeks), efficacy; type: in vivo, human; conditions: for UUI Episodes 75% Responders at Week 52 / UUI Episodes 100% Responders at Week 52 / Urgency Episodes 50% Responders at Week 52: multiple imputation
Source text: All CFB calculations used the parent study Baseline value.

[5] = 40-Week treatment group, Full Analysis Set Extension
[6] = 52-Week treatment group, Full Analysis Set Extension

## O=C(Nc1ccc(C[C@@H]2CC[C@H]([C@H](O)c3ccccc3)N2)cc1)[C@@H]1CCc2nccc(=O)n21 [Vibegron, (6S)-N-[4-[[(2S,5R)−5-[(R)-hydroxy(phenyl)methyl]pyrrolidin−2-yl]methyl]phenyl]−4-oxo−7,8-dihydro−6H-pyrrolo[1,2-a]pyrimidine−6-carboxamide]
[1]; 40-Week treatment group
  OAB-q LF Coping Subscore, Week 52 Mean: 86.3
  OAB-q LF Coping Subscore, Change from Baseline Mean at Week 52: 28.3
[1]; 52-Week treatment group
  OAB-q LF Coping Subscore, Week 52 Mean: 83.6
  OAB-q LF Coping Subscore, Change from Baseline Mean at Week 52: 27.1
[2]; human, in vivo
  frequency of injuries: 0.9%
[2]; vibegron 3 mg
  Accidental overdose: 3 (2.1) n (%)
[2]; vibegron 15 mg
  Accidental overdose: 6 (4.5) n (%)
[2]; vibegron 50 mg
  Accidental overdose: 4 (2.7) n (%)
[2]; vibegron 100 mg
  Accidental overdose: 11 (4.2) n (%)
[3]; 40-Weeks arm
  Discontinued the study: Death: 1 (1.1) n (%)
[3]; 52-Weeks arm
  Discontinued the study: Death: 0 n (%)
[3]; Overall groups
  SAEs resulting in death (not considered related by Investigator or Sponsor): 1 (0.4) n (%)
[3]; Overall groups, Randomized Set Extension
  Discontinued the study: Death: 1 (0.4) n (%)
[3]; both, human, in vivo
  Discontinued the study: Adverse Event: 4 (1.5) n (%)
  Patients with at least one treatment-emergent adverse event: 171 (62.6) n (%)
  Patients with at least one treatment-emergent serious AE: 9 (3.3) n (%)
  SAEs considered treatment-related by the investigator: 1 (0.4) n (%)
  SAEs: Hospitalization: 7 (2.6) n (%)
  SAEs: Other serious criteria: 1 (0.4) n (%)
[3]; both, human, in vivo, 40 weeks
  Discontinued the study: Adverse Event: 1 (1.1) n (%)
[3]; both, human, in vivo, 52 weeks
  AE leading to discontinuation of study drug: Acute prerenal failure: 0 n (%)
  AE leading to discontinuation of study drug: Amnesia: 1 (0.4) n (%)
  AE leading to discontinuation of study drug: Any: 4 (1.5) n (%)
  AE leading to discontinuation of study drug: Aortic stenosis: 0 n (%)
  AE leading to discontinuation of study drug: Atrial fibrillation: 0 n (%)
  AE leading to discontinuation of study drug: Blood creatinine increased: 1 (0.4) n (%)
  AE leading to discontinuation of study drug: Blood urea increased: 1 (0.4) n (%)
  AE leading to discontinuation of study drug: Cardiac failure: 0 n (%)
  AE leading to discontinuation of study drug: Cardiomyopathy: 0 n (%)
  AE leading to discontinuation of study drug: Chronic kidney disease: 0 n (%)
  AE leading to discontinuation of study drug: Constipation: 1 (0.4) n (%)
  AE leading to discontinuation of study drug: Diarrhea: 1 (0.4) n (%)
  AE leading to discontinuation of study drug: Dizziness: 0 n (%)
  AE leading to discontinuation of study drug: Dry eye: 0 n (%)
  AE leading to discontinuation of study drug: Dyspnoea: 0 n (%)
  AE leading to discontinuation of study drug: Haematuria: 0 n (%)
  AE leading to discontinuation of study drug: Headache: 0 n (%)
  AE leading to discontinuation of study drug: Intervertebral disc degeneration: 0 n (%)
  AE leading to discontinuation of study drug: Mitral valve incompetence: 0 n (%)
  AE leading to discontinuation of study drug: Osteoarthritis: 0 n (%)
  AE leading to discontinuation of study drug: Pulmonary embolism: 0 n (%)
  AE leading to discontinuation of study drug: Sinus tachycardia: 0 n (%)
  AE leading to discontinuation of study drug: Tricuspid valve incompetence: 0 n (%)
  AE: Anaemia: 7 (2.6) n (%)
  AE: Atrial fibrillation: 0 n (%)
  AE: Back pain: 6 (2.2) n (%)
  AE: Blood pressure increased: 2 (0.7) n (%)
  AE: Bronchitis: 8 (2.9) n (%)
  AE: Constipation: 10 (3.7) n (%)
  AE: Diarrhea: 13 (4.8) n (%)
  AE: Dizziness: 4 (1.5) n (%)
  AE: Dry mouth: 5 (1.8) n (%)
  AE: Fatigue: 3 (1.1) n (%)
  AE: Headache: 15 (5.5) n (%)
  AE: Hyperglycemia: 7 (2.6) n (%)
  AE: Hypertension: 24 (8.8) n (%)
  AE: Hypotension: 0 n (%)
  AE: Musculoskeletal pain: 6 (2.2) n (%)
  AE: Nasopharyngitis: 13 (4.8) n (%)
  AE: Nausea: 10 (3.7) n (%)
  AE: Residual urine volume increased: 7 (2.6) n (%)
  AE: Syncope: 0 n (%)
  AE: Tachycardia (Sinus Tachycardia): 1 (0.4) n (%)
  AE: Upper respiratory tract infection: 10 (3.7) n (%)
  AE: Urinary retention: 3 (1.1) n (%)
  AE: Urinary tract infection: 18 (6.6) n (%)
  Discontinued the study: Adverse Event: 3 (1.6) n (%)
[4]; 40-Week arm
  Micturitions, Change from Baseline at Week 52, Mean: −3.1
  UUI Episodes, Change from Baseline at Week 52, Mean: −2.3
  UUI Episodes, Week 52 Mean: 1.2
  Urgency Episodes, Change from Baseline at Week 52, Mean: −4.0
  Urgency Episodes, Week 52 Mean: 4.7
[4]; 40-Week arm, Full Analysis Set Extension
  Micturitions, Week 52 Mean: 9.3
[4]; [5]
  Total urinary incontinence episodes, Change from Baseline Mean at Week 52: −2.5
  Total urinary incontinence episodes, Week 52 Mean: 1.8
[4]; 40-Week treatment group
  UUI Episodes 75% Responders at Week 52: 58.7%
  UUI Episodes 100% Responders at Week 52: 42.1%
  Urgency Episodes 50% Responders at Week 52: 51.4%
[4]; 52-Week arm
  Micturitions, Change from Baseline at Week 52, Mean: −2.5
  UUI Episodes, Change from Baseline at Week 52, Mean: −2.2
  UUI Episodes, Week 52 Mean: 1.0
  Urgency Episodes, Change from Baseline at Week 52, Mean: −3.4
  Urgency Episodes, Week 52 Mean: 4.5
[4]; 52-Week arm, Full Analysis Set Extension
  Micturitions, Week 52 Mean: 8.7
[4]; [6]
  Total urinary incontinence episodes, Change from Baseline Mean at Week 52: −2.5
  Total urinary incontinence episodes, Week 52 Mean: 1.2
[4]; 52-Week treatment group
  UUI Episodes 75% Responders at Week 52: 61.0%
  UUI Episodes 100% Responders at Week 52: 40.8%
  Urgency Episodes 50% Responders at Week 52: 49.4%
[4]; 52-Weeks arm, Full Analysis Set Extension for Incontinence
  UUI Episodes, Change from Baseline LS Mean (SE) at Week 52: −2.2 (0.15)
[4]; 52-Weeks arm, mixed model for repeated measures
  Micturitions, Change from Baseline LS Mean (SE) at Week 52: −2.4 (0.24)
[4]; 52-Weeks treatment, Full Analysis Set Extension
  Urgency episodes, Change from Baseline LS Mean (SE) at Week 52: −3.4 (0.34)
[4]; 52-Weeks treatment, Full Analysis Set Extension for Incontinence
  Total urinary incontinence episodes, Change from Baseline LS Mean (SE) at Week 52: −2.5 (0.17)
[4]; 52-week treatment, Table 97
  % Responders, 50% Reduction in Total Inc at Week 52: 71%
  % Responders, 50% Reduction in UE at Week 52: 49%
  % Responders, 75% Reduction in UUI at Week 52: 61%
  % Responders, 100% Reduction in UUI at Week 52: 41%
  Micturitions, Least Squares Means CFB at Week 52: −2.4
  Total Incontinence Episodes, Least Squares Means CFB at Week 52: −2.5
  UUI Episodes, Least Squares Means CFB at Week 52: −2.2
  Urgency Episodes (UE), Least Squares Means CFB at Week 52: −3.4
  Volume Voided, mean change from baseline at Week 52: 26 mL
